Measurements taken from the supplement of paper PMC13380429.

Legend:
Details in all cases: 72 h
Vero E6 [1] = test: relative viability EC50 (midpoint between 100% and the lowest measured viability); higher = less toxic
Caco-2 [2] = test: as above
Vero E6 [3] = test: cell viability relative to DMSO; higher = less toxic
HepG2 [4] = test: as above
U2OS [5] = test: as above
Caco-2 [6] = test: as above
Calu-3 [7] = test: as above
Vero E6 [8] = test: drug sensitivity score (DSS) for viability; higher = more toxic; extreme values may be limits of the assay
HepG2 [9] = test: as above
U2OS [10] = test: as above
Caco-2 [11] = test: as above
Calu-3 [12] = test: as above
HepG2 [13] = test: relative viability EC50 (midpoint between 100% and the lowest measured viability); higher = less toxic
U2OS [14] = test: as above
Calu-3 [15] = test: as above

Row | SMILES | relative viability EC50 (Vero E6 [1]) [µM] | relative viability EC50 (Caco-2 [2]) [µM] | cell viability (Vero E6 [3]; 1 nM) [%] | cell viability (Vero E6 [3]; 10 nM) [%] | cell viability (Vero E6 [3]; 100 nM) [%] | cell viability (Vero E6 [3]; 1000 nM) [%] | cell viability (Vero E6 [3]; 10000 nM) [%] | cell viability (HepG2 [4]; 1 nM) [%] | cell viability (HepG2 [4]; 10 nM) [%] | cell viability (HepG2 [4]; 100 nM) [%] | cell viability (HepG2 [4]; 1000 nM) [%] | cell viability (HepG2 [4]; 10000 nM) [%] | cell viability (U2OS [5]; 1 nM) [%] | cell viability (U2OS [5]; 10 nM) [%] | cell viability (U2OS [5]; 100 nM) [%] | cell viability (U2OS [5]; 1000 nM) [%] | cell viability (U2OS [5]; 10000 nM) [%] | cell viability (Caco-2 [6]; 1 nM) [%] | cell viability (Caco-2 [6]; 10 nM) [%] | cell viability (Caco-2 [6]; 100 nM) [%] | cell viability (Caco-2 [6]; 1000 nM) [%] | cell viability (Caco-2 [6]; 10000 nM) [%] | cell viability (Calu-3 [7]; 1 nM) [%] | cell viability (Calu-3 [7]; 10 nM) [%] | cell viability (Calu-3 [7]; 100 nM) [%] | cell viability (Calu-3 [7]; 1000 nM) [%] | cell viability (Calu-3 [7]; 10000 nM) [%] | drug sensitivity score (Vero E6 [8]) | drug sensitivity score (HepG2 [9]) | drug sensitivity score (U2OS [10]) | drug sensitivity score (Caco-2 [11]) | drug sensitivity score (Calu-3 [12]) | relative viability EC50 (HepG2 [13]) [µM] | relative viability EC50 (U2OS [14]) [µM] | relative viability EC50 (Calu-3 [15]) [µM]
1 | Cc1noc(C)c1-c1cc(O)cc([C@@H](O)c2ccccc2)c1 [OXF-BD-02] | 1.48 | > 10 | 102 | 103 | 94.6 | 76.9 | 17 | 107 | 104 | 98.6 | 101 | 54.4 | 97.2 | 94.2 | 99.7 | 86.9 | 59.3 | 100 | 92 | 99.3 | 92.5 | 80.3 | 98.9 | 95.2 | 99.8 | 96.8 | 70.8 | 8 | 2.3 | 3.9 | 1.3 | 1.8 |  |  | 
2 | CCN(CCCc1ccccc1)CCCc1ccccc1 [alverine] | > 10 | > 10 | 97.2 | 93.4 | 100 | 97.9 | 100 | 107 | 87.3 | 96.7 | 98.1 | 76.2 | 102 | 100 | 101 | 97.8 | 102 | 101 | 93.6 | 99.2 | 97.8 | 94.8 |  |  |  |  |  | 0 | 1.1 | 0 | 0 |  | > 10 | > 10 | 
3 | O=C(O)c1c(Sc2ccccc2)c2cc(Cl)ccc2n1Cc1ccc(Cl)cc1 [nTZDpa] | > 10 | > 10 | 99.6 | 96 | 99.5 | 95.4 | 89.8 | 96.9 | 92.1 | 96.8 | 97.3 | 90.7 | 96.6 | 101 | 92.1 | 96.2 | 101 | 97.1 | 97 | 105 | 96.6 | 90.4 |  |  |  |  |  | 0 | 0 | 0 | 0 |  | > 10 | > 10 | 
4 | CCOc1cc(C(C)(C)C)ccc1C1=N[C@@](C)(c2ccc(Cl)cc2)[C@@](C)(c2ccc(Cl)cc2)N1C(=O)N1CCN(CCCS(C)(=O)=O)CC1 [RG7112] | 1.38 |  | 106 | 107 | 99.3 | 78.1 | 28.8 | 95.1 | 102 | 86.3 | 35.2 | 20.6 | 97.6 | 98.1 | 96.9 | 80.5 | 44.7 | 101 | 95.9 | 104 | 94.5 | 56.6 | 98 | 94.6 | 101 | 89 | 77.5 | 7.1 | 13.7 | 5.5 | 3.1 | 2 | 0.327 | 1.34 | > 10
5 | COc1cc2ncnc(Nc3ccc(Cl)cc3F)c2cc1OC | 0.434 |  | 100 | 99.2 | 87.7 | 66.8 | 48.6 | 99.1 | 107 | 89.4 | 109 | 87.1 | 97.3 | 98.5 | 99.4 | 96.3 | 84.1 | 91.1 | 91.6 | 88.6 | 81.5 | 62.4 | 96.2 | 103 | 90.2 | 61.1 | 22.6 | 7.4 | 0 | 0.7 | 4.7 | 9 | > 10 | > 10 | 0.903
6 | COc1cc2c(cc1F)C(c1ccccc1Cl)=Nc1c(n[nH]c1C)N2 [RG1530] | > 10 | > 10 | 101 | 99 | 99.6 | 92.5 | 82.1 | 98.5 | 98.5 | 93.9 | 63.2 | 77.6 | 101 | 95.8 | 99.5 | 85.8 | 68.6 | 94.8 | 90.8 | 89.1 | 81.4 | 76.1 | 111 | 100 | 98.7 | 90.5 | 52.8 | 1.1 | 7.5 | 3.1 | 3.5 | 4 |  |  | 
7 | CON(C)C(=O)N1N=C(c2cc(F)ccc2F)S[C@@]1(CCCN)c1ccccc1 [filanesib] | 0.0172 |  | 106 | 81.9 | 45.1 | 46.4 | 40.7 | 98 | 50 | 35.1 | 34.1 | 34.4 | 98.2 | 97.8 | 50.8 | 43.5 | 43.8 | 96.7 | 76.6 | 68.7 | 68.4 | 62.1 | 97 | 104 | 87.8 | 88.1 | 79.3 | 20.2 | 26.8 | 16.7 | 12.9 | 2 | 0.0056 | 0.0424 | > 10
8 | CC(C)C[C@H](NC(=O)[C@@H](COC(C)(C)C)NC(=O)[C@H](Cc1ccc(O)cc1)NC(=O)[C@H](CO)NC(=O)[C@H](Cc1c[nH]c2ccccc12)NC(=O)[C@H](Cc1cnc[nH]1)NC(=O)[C@@H]1CCC(=O)N1)C(=O)N[C@@H](CCCNC(=N)N)C(=O)N1CCC[C@H]1C(=O)NNC(N)=O [goserelin-acetate] | > 10 |  | 91 | 104 | 104 | 95.3 | 88.7 | 108 | 92.9 | 100 | 92.1 | 98.7 | 107 | 101 | 99.2 | 98.7 | 96.7 | 96.9 | 106 | 96.6 | 73.5 | 94.1 | 99.4 | 97.7 | 96.1 | 95.4 | 104 | 0.1 | 0 | 0 | 0.6 | 0 | > 10 | > 10 | > 10
9 | Cc1cccc(NC(=O)N[C@@H]2N=C(c3ccccc3)c3ccccc3N(C)C2=O)c1 | > 10 | > 10 | 111 | 102 | 109 | 101 | 93.6 | 111 | 109 | 110 | 106 | 92.5 |  |  |  |  |  | 105 | 106 | 100 | 110 | 97.2 |  |  |  |  |  | 0 | 0 |  | 0 |  | > 10 |  | 
10 | O=C(/C=C/C=C/c1ccc2c(c1)OCO2)N1CCCCC1 [piperine] | > 10 |  | 108 | 102 | 109 | 92.5 | 93.2 | 93.7 | 91.8 | 86.7 | 84.6 | 95.9 | 95.1 | 97.6 | 91.2 | 102 | 97.8 | 94.4 | 106 | 96.6 | 97.4 | 70.9 | 92.4 | 103 | 101 | 106 | 90.1 | 0 | 0 | 0 | 1.6 | 0 | > 10 | > 10 | > 10
11 | C[C@]12CC[C@H]3[C@@H](CCC4=CC(=O)CC[C@@]43C)[C@@H]1CC[C@@H]2O [TESTOSTERONE] | > 10 |  | 97.6 | 103 | 98.7 | 108 | 87.9 | 81 | 91.7 | 104 | 104 | 95.1 | 102 | 92.4 | 98.7 | 100 | 94.6 | 104 | 97.6 | 70.8 | 72.6 | 79.9 | 95.2 | 99.1 | 102 | 95.3 | 92.3 | 0 | 0 | 0 | 8.9 | 0 | > 10 | > 10 | > 10
12 | CC[N+](CC)(CC)CCOc1ccc(/C=C/c2ccccc2)cc1 [MG-624] | > 10 |  | 97.9 | 91 | 88.6 | 97.8 | 97.4 | 106 | 102 | 102 | 99.3 | 78.9 | 101 | 103 | 100 | 104 | 93 | 101 | 100 | 93.6 | 89.3 | 68.7 | 101 | 103 | 94.3 | 95.4 | 93.3 | 0 | 0.7 | 0 | 2.3 | 0 | > 10 | > 10 | > 10
13 | CCc1cccc(CC)c1NC(=O)N1Cc2[nH]nc(NC(=O)c3ccc(N4CCN(C)CC4)cc3)c2C1 | > 10 | > 10 | 96.9 | 97.5 | 96.9 | 95.9 | 89.3 | 102 | 97.5 | 93.9 | 70.5 | 58.3 | 102 | 97.8 | 95.4 | 93.1 | 40 | 101 | 104 | 98.7 | 91.8 | 76.8 | 99.1 | 93.4 | 87.6 | 95 | 63 | 0 | 5.9 | 4.4 | 1.7 | 2.6 |  | 2.22 | 
